43 sequences from the supplement of paper PMC11208160 can be followed below.

The nature of the data set: recombinant barcode read abundance after kanamycin selection (control-corrected) (log10(CPM+1)); higher = more efficient recombination; sequences stand for … in AGTGCAGAGAAAATCGGCCAGTTTTCTCTGCCTGCAGTCCGCATGCCGT…ATTTATGCAGCGGACTGCCTTTCTCCCAAAGTGATAAACCGGACAGTATCATGGACCGGTTTTCCCGGTAATCCGTATTTGCAAGGTTGGTTTCACT; site = the 11-nt target. A digest of the protocol: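 Recombination efficiency comes from barcode counts at recombinant junctions, converted to counts per million, averaged and corrected against the control. Values appear as log10(CPM+1). They were obtained from a pooled E. coli screen in which each oligo paired a target with an IS621 bridge RNA target-binding loop, and cells were plated in duplicate on chloramphenicol/ampicillin LB agar or on chloramphenicol/ampicillin/kanamycin with 0.1 mM IPTG.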
Regarding “GGTGCCCCTTGGGTTCTAACCTGTTGCCGAC [GGTGCCCCTCG_LTGcore_CT_RTGcore_GT] (site GGTGCCCCTCG) (LTG core: CT, RTG core: GT)”, the “recombinant barcode read abundance (log10)” value amounted to 0.297. Take “GGTGCCCCTTGGGTTCTAACCTGTTGCCGTC [GGTGCCCCTCG_LTGcore_CT_RTGcore_GA] (site GGTGCCCCTCG) (LTG core: CT, RTG core: GA)”: the “recombinant barcode read abundance (log10)” value stood at 0.332. With “GGTGCCCGATGGGTTCTAACCTGTTGCCGTC [GGTGCCCCTCG_LTGcore_GA_RTGcore_GA] (site GGTGCCCCTCG) (LTG core: GA, RTG core: GA)”, the “recombinant barcode read abundance (log10)” value amounted to 0.134.

On to “GGTGCCCTCTGGGTTCTAACCTGTTGCCGAG [GGTGCCCCTCG_LTGcore_TC_RTGcore_CT] (site GGTGCCCCTCG) (LTG core: TC, RTG core: CT)”, for which the “recombinant barcode read abundance (log10)” value is 0.0654. In the case of “GTCGCCCAGTGGGTTCTAACCTGTTGCTAAG [GTCGCCCCTTA_LTGcore_AG_RTGcore_CT] (site GTCGCCCCTTA) (LTG core: AG, RTG core: CT)”, the “recombinant barcode read abundance (log10)” value stood at 0.139. On to “GTCGCCCAGTGGGTTCTAACCTGTTGCTACT [GTCGCCCCTTA_LTGcore_AG_RTGcore_AG] (site GTCGCCCCTTA) (LTG core: AG, RTG core: AG)”, for which the “recombinant barcode read abundance (log10)” value amounted to 0.283. For “GTCGCCCCATGGGTTCTAACCTGTTGCTATG [GTCGCCCCTTA_LTGcore_CA_RTGcore_CA] (site GTCGCCCCTTA) (LTG core: CA, RTG core: CA)”, the “recombinant barcode read abundance (log10)” value was determined as 0.379. As to “GTCGCCCCGTGGGTTCTAACCTGTTGCTAAG [GTCGCCCCTTA_LTGcore_CG_RTGcore_CT] (site GTCGCCCCTTA) (LTG core: CG, RTG core: CT)”, the “recombinant barcode read abundance (log10)” value was 0.325.

In the case of “GTCGCCCCTTGGGTTCTAACCTGTTGCTAGC [GTCGCCCCTTA_LTGcore_CT_RTGcore_GC] (site GTCGCCCCTTA) (LTG core: CT, RTG core: GC)”, the “recombinant barcode read abundance (log10)” value is 0.805.

With “GTCGCCCGATGGGTTCTAACCTGTTGCTAAG [GTCGCCCCTTA_LTGcore_GA_RTGcore_CT] (site GTCGCCCCTTA) (LTG core: GA, RTG core: CT)”, the “recombinant barcode read abundance (log10)” value was found to be 0. For the sequence “GTCGCCCGATGGGTTCTAACCTGTTGCTATC [GTCGCCCCTTA_LTGcore_GA_RTGcore_GA] (site GTCGCCCCTTA) (LTG core: GA, RTG core: GA)”, the “recombinant barcode read abundance (log10)” value stood at 0.103. On to “GTCGCCCGGTGGGTTCTAACCTGTTGCTACC [GTCGCCCCTTA_LTGcore_GG_RTGcore_GG] (site GTCGCCCCTTA) (LTG core: GG, RTG core: GG)”, for which the “recombinant barcode read abundance (log10)” value was found to be 0.458. Turning to “GTCGCCCGTTGGGTTCTAACCTGTTGCTAAG [GTCGCCCCTTA_LTGcore_GT_RTGcore_CT] (site GTCGCCCCTTA) (LTG core: GT, RTG core: CT)”, the “recombinant barcode read abundance (log10)” value is 0.431.

Turning to “GTCGCCCTCTGGGTTCTAACCTGTTGCTAGA [GTCGCCCCTTA_LTGcore_TC_RTGcore_TC] (site GTCGCCCCTTA) (LTG core: TC, RTG core: TC)”, the “recombinant barcode read abundance (log10)” value was 0.236. On to “TAAGAATAATGGGTTCTAACCTGTTGCCTTT [TAAGAATCTAG_LTGcore_AA_RTGcore_AA] (site TAAGAATCTAG) (LTG core: AA, RTG core: AA)”, for which the “recombinant barcode read abundance (log10)” value stood at 1.48. Turning to “TAAGAATATTGGGTTCTAACCTGTTGCCTAT [TAAGAATCTAG_LTGcore_AT_RTGcore_AT] (site TAAGAATCTAG) (LTG core: AT, RTG core: AT)”, the “recombinant barcode read abundance (log10)” value came to 0.141. Regarding “TAAGAATCCTGGGTTCTAACCTGTTGCCTAG [TAAGAATCTAG_LTGcore_CC_RTGcore_CT] (site TAAGAATCTAG) (LTG core: CC, RTG core: CT)”, the “recombinant barcode read abundance (log10)” value was 0.193. Then “TAAGAATCTTGGGTTCTAACCTGTTGCCTCG [TAAGAATCTAG_LTGcore_CT_RTGcore_CG] (site TAAGAATCTAG) (LTG core: CT, RTG core: CG)”, with 1.61. As for “TAAGAATCTTGGGTTCTAACCTGTTGCCTCT [TAAGAATCTAG_LTGcore_CT_RTGcore_AG] (site TAAGAATCTAG) (LTG core: CT, RTG core: AG)”, the “recombinant barcode read abundance (log10)” value was determined as 0.422.

As for “TAAGAATCTTGGGTTCTAACCTGTTGCCTGA [TAAGAATCTAG_LTGcore_CT_RTGcore_TC] (site TAAGAATCTAG) (LTG core: CT, RTG core: TC)”, the “recombinant barcode read abundance (log10)” value was determined as 0.145.

“TAAGAATCTTGGGTTCTAACCTGTTGCCTTT [TAAGAATCTAG_LTGcore_CT_RTGcore_AA] (site TAAGAATCTAG) (LTG core: CT, RTG core: AA)”: the “recombinant barcode read abundance (log10)” value was determined as 0.421.

In the case of “TAGAGGGAATGGGTTCTAACCTGTTGCGGTT [TAGAGGGCTCC_LTGcore_AA_RTGcore_AA] (site TAGAGGGCTCC) (LTG core: AA, RTG core: AA)”, the “recombinant barcode read abundance (log10)” value is 0.0221. As to “TAGAGGGACTGGGTTCTAACCTGTTGCGGGT [TAGAGGGCTCC_LTGcore_AC_RTGcore_AC] (site TAGAGGGCTCC) (LTG core: AC, RTG core: AC)”, the “recombinant barcode read abundance (log10)” value came out at 0.247.

Consider “TAGAGGGCATGGGTTCTAACCTGTTGCGGTG [TAGAGGGCTCC_LTGcore_CA_RTGcore_CA] (site TAGAGGGCTCC) (LTG core: CA, RTG core: CA)”, for which the “recombinant barcode read abundance (log10)” value was determined as 0.23.

For the sequence “TAGAGGGCTTGGGTTCTAACCTGTTGCGGAG [TAGAGGGCTCC_LTGcore_CT_RTGcore_CT] (site TAGAGGGCTCC) (LTG core: CT, RTG core: CT)”, the “recombinant barcode read abundance (log10)” value was determined as 2.86. Turning to “TAGAGGGCTTGGGTTCTAACCTGTTGCGGCC [TAGAGGGCTCC_LTGcore_CT_RTGcore_GG] (site TAGAGGGCTCC) (LTG core: CT, RTG core: GG)”, the “recombinant barcode read abundance (log10)” value was 0.0898. Next, “TAGAGGGCTTGGGTTCTAACCTGTTGCGGGA [TAGAGGGCTCC_LTGcore_CT_RTGcore_TC] (site TAGAGGGCTCC) (LTG core: CT, RTG core: TC)”: 0.378. Turning to “TAGAGGGCTTGGGTTCTAACCTGTTGCGGGT [TAGAGGGCTCC_LTGcore_CT_RTGcore_AC] (site TAGAGGGCTCC) (LTG core: CT, RTG core: AC)”, the “recombinant barcode read abundance (log10)” value is 0.122. Then “TAGAGGGCTTGGGTTCTAACCTGTTGCGGTC [TAGAGGGCTCC_LTGcore_CT_RTGcore_GA] (site TAGAGGGCTCC) (LTG core: CT, RTG core: GA)”, with 0.158; and “TAGAGGGCTTGGGTTCTAACCTGTTGCGGTT [TAGAGGGCTCC_LTGcore_CT_RTGcore_AA] (site TAGAGGGCTCC) (LTG core: CT, RTG core: AA)”, with 0.0916; and “TAGAGGGGATGGGTTCTAACCTGTTGCGGAG [TAGAGGGCTCC_LTGcore_GA_RTGcore_CT] (site TAGAGGGCTCC) (LTG core: GA, RTG core: CT)”, with 0.441.

For the sequence “TCGCGACCATGGGTTCTAACCTGTTGCCGAG [TCGCGACCTCG_LTGcore_CA_RTGcore_CT] (site TCGCGACCTCG) (LTG core: CA, RTG core: CT)”, the “recombinant barcode read abundance (log10)” value stood at 0.0739. On to “TCGCGACCTTGGGTTCTAACCTGTTGCCGCG [TCGCGACCTCG_LTGcore_CT_RTGcore_CG] (site TCGCGACCTCG) (LTG core: CT, RTG core: CG)”, for which the “recombinant barcode read abundance (log10)” value came to 0.436. Next, “TCGCGACCTTGGGTTCTAACCTGTTGCCGGA [TCGCGACCTCG_LTGcore_CT_RTGcore_TC] (site TCGCGACCTCG) (LTG core: CT, RTG core: TC)”: 0.26.

As for “TCGCGACCTTGGGTTCTAACCTGTTGCCGTA [TCGCGACCTCG_LTGcore_CT_RTGcore_TA] (site TCGCGACCTCG) (LTG core: CT, RTG core: TA)”, the “recombinant barcode read abundance (log10)” value was found to be 0.0883. In the case of “TCGCGACTCTGGGTTCTAACCTGTTGCCGAG [TCGCGACCTCG_LTGcore_TC_RTGcore_CT] (site TCGCGACCTCG) (LTG core: TC, RTG core: CT)”, the “recombinant barcode read abundance (log10)” value turned out to be 0.0502.

As to “TCGCGACTCTGGGTTCTAACCTGTTGCCGGA [TCGCGACCTCG_LTGcore_TC_RTGcore_TC] (site TCGCGACCTCG) (LTG core: TC, RTG core: TC)”, the “recombinant barcode read abundance (log10)” value is 0.0969. In the case of “TCGCGACTTTGGGTTCTAACCTGTTGCCGAA [TCGCGACCTCG_LTGcore_TT_RTGcore_TT] (site TCGCGACCTCG) (LTG core: TT, RTG core: TT)”, the “recombinant barcode read abundance (log10)” value was found to be 0. “TCTACCCAATGGGTTCTAACCTGTTGCTGAG [TCTACCCCTCA_LTGcore_AA_RTGcore_CT] (site TCTACCCCTCA) (LTG core: AA, RTG core: CT)”: the “recombinant barcode read abundance (log10)” value was 0.0508.

On to “TCTACCCACTGGGTTCTAACCTGTTGCTGAG [TCTACCCCTCA_LTGcore_AC_RTGcore_CT] (site TCTACCCCTCA) (LTG core: AC, RTG core: CT)”, for which the “recombinant barcode read abundance (log10)” value amounted to 0.0555.

With “TCTACCCAGTGGGTTCTAACCTGTTGCTGAG [TCTACCCCTCA_LTGcore_AG_RTGcore_CT] (site TCTACCCCTCA) (LTG core: AG, RTG core: CT)”, the “recombinant barcode read abundance (log10)” value came to 0.467. For the sequence “TCTACCCCATGGGTTCTAACCTGTTGCTGAG [TCTACCCCTCA_LTGcore_CA_RTGcore_CT] (site TCTACCCCTCA) (LTG core: CA, RTG core: CT)”, the “recombinant barcode read abundance (log10)” value came out at 0.806.

On to “TCTACCCCTTGGGTTCTAACCTGTTGCTGCC [TCTACCCCTCA_LTGcore_CT_RTGcore_GG] (site TCTACCCCTCA) (LTG core: CT, RTG core: GG)”, for which the “recombinant barcode read abundance (log10)” value was 0.0951.
